Measurements: patent USRE34712E, “Pharmaceutically useful (+)-1-(3-dimethylaminopropyl)-1-(4'-fluorophenyl)-1,3-dihydroiso benzofuran-5-carbonitrile and non-toxic acid addition salts thereof” (priority 1988, dated 1994)

Assays:
[1] = test system: effect of 5-HTP (5-HT syndrome); experiment: 5-HTP-potentiation (5-HT syndrome in mice); format: in vivo; details: 5-HTP 100 mg/kg i.v. 30 minutes after test substance, log-probit analysis
Experimental: The test evaluates the ability of the substance to potentiate the effect of 5-HTP, which results in development of 5-HT syndrome (Christensen, Fjalland, Pedersen, Danneskiold-Samsoe and Svendsen; European J. Pharmacol. 41, 153-162, 1977).
Each treatment group consists of 3 mice, and two groups are treated with the highest test dose. A control group only treated with 5-HTP is included and a group treated with citalopram 10 mg/kg and 5-HTP is used as reference for full 5-HT syndrome.
30 minutes after the administration of the test substance, the other groups are given 5-HTP (100 mg/kg) i.v. (injection time 5-10 sec.). After this 5-HTP dose normal, untreated mice remain unaffected, but if the animals have been pretreated with a substance, which inhibits the uptake of 5-HT or a 5-HT agonist, a 5-HTP syndrome will occur. The symptoms are the same as previously described: (1) excitation, (2) tremor, and (3) abduction of the hind limbs. The animals are observed for 15 minutes and each animal is given one point for each symptom present. Again the result is stated in fractions: 0/9, 1/9, . . . 9/9, where 0, 1, . . . , 9 are the number of points per group after the dose in question. The ED50 value is calculated by log-probit analysis.

depression in man = details: racemate, Ref. A. Gravem et al. 1987; cited from earlier work
[2] = format: physicochemical
Experimental: A 2:1 addition compound of the (+)-isomer with L(+)-tartaric acid was prepared in the following manner: 4 g of the (+)-isomer as base were dissolved in 100 ml of diethyl ether and extracted into 100 ml of water containing 0.8 g of L(+)-tartaric acid by stirring. The organic phase was separated and discarded. The water-phase was freeze-dried in vacuo (<0.1 mm Hg) for 18 hours leaving 3.8 g of a white powder of the title compound.

**Q.** For `CN(C)CCCC1(c2ccc(F)cc2)OCc2cc(C#N)ccc21` (single isomer, unassigned; (+)) [(+)-citalopram, (+)-1-(3-Dimethylaminopropyl)-1-(4'-fluorophenyl)-1,3-dihydroisobenzofuran-5-carbonitrile], which “5-HTP pot. ED50” value [1] is on record?
**A.** The value was 2.0 µmol/kg.

**Q.** For `CN(C)CCCC1(c2ccc(F)cc2)OCc2cc(C#N)ccc21` (racemic) [(±)-citalopram, 1-(3-dimethylaminopropyl)-1-(4'-fluorophenyl)-1,3-dihydroisobenzofuran-5-carbonitrile, reference compound], which ED50 ([1]; Mus musculus, iv, 0.5 h, read-out: 5-HTP pot. ED50) is on record?
**A.** The ED50 was 3.3 µmol/kg.

**Q.** And the “antidepressant efficacy in man” value (depression in man)?
**A.** Its value is “efficient antidepressant compound in man”.

**Q.** Which “5-HTP pot. ED50” value [1] does the source give for `CN(C)CCCC1(c2ccc(F)cc2)OCc2cc(C#N)ccc21` (single isomer, unassigned; (-)) [(-)-citalopram, (-)-1-(3-dimethylaminopropyl)-1-(4'-fluorophenyl)-1,3-dihydroisobenzofuran-5-carbonitrile] here?
**A.** The value was 120 µmol/kg.

**Q.** Which “stability” value [2] does the source give for `CN(C)CCCC1(c2ccc(F)cc2)OCc2cc(C#N)ccc21` (single isomer, unassigned) [2:1 addition compound of the (+)-isomer with L(+)-tartaric acid] here?
**A.** The value was “stable”.

**Q.** And the “hygroscopicity” value ([2]; freeze-dried white powder)?
**A.** The value was “not hygroscopic”.
